# Patent US6541505B1, “Substituted (aminoiminomethyl or aminomethyl) benzoheteroaryl compounds” (Aventis Pharmaceuticals Inc., priority 1998, dated 2003)
# Counter-ions that a name gives are not always drawn.
row,Structure (SMILES),melting point [°C]
1,"N=C(N)c1c[nH]c2ccc(CCNC(=O)c3ccc(-c4ccnc(N5CCCC5)n4)cc3)cc12 [Example 1aaah, N-[2-(3-Carbamimidoyl-1H-indol-5-yl)-ethyl]-4-(2-pyrrolidin-1-ylpyrimidin-4-yl)benzamide]",134 to 136
2,"CN(CC(N)=O)c1nccc(-c2ccc(C(=O)NCCc3ccc4[nH]cc(C(=N)N)c4c3)cc2)n1 (as salt: salt) [Example 1aaak, N-[2-(3-Carbamimidoyl-1H-indol-5-yl)-ethyl]-4-[2-(carbamoylmethyl-N-methylamino)-pyrimidin-4-yl]benzamide]",96 to 98
3,"CN(C)CCOc1ccc(-c2ccc(C(=O)NCCc3ccc4[nH]cc(C(=N)N)c4c3)cc2)cn1 [Example 1aaaaaz, N-(2-[3-Carbamimidoylindol-5-yl]ethyl)-4-(6-[2-dimethylaminoethoxy]pyridin-3-yl)benzamide]",57 to 59
4,"N=C(N)c1c[nH]c2ccc(CCNC(=O)c3ccc(-c4ccnc(NCCCCCCN5CCCC5)n4)cc3)cc12 [Example 1aaal, N-[2-(3-Carbamimidoyl-1H-indol-5-yl)ethyl]-4-[2-(6-pyrrolidin-1-yl-hexylamino)pyrimidin-4-yl]benzamide]",159 to 161
5,"CN(C)CCCCCCOc1nccc(-c2ccc(C(=O)NCCc3ccc4[nH]cc(C(=N)N)c4c3)cc2)n1 [Example 1aaaan, N-[2-(3-Carbamimidoyl-1H-indol-5-yl)ethyl]-4-[2-(6-dimethylaminohexyloxy)pyrimidin-4-yl]benzamide]",82 to 84
6,"CN1CCN(c2nccc(-c3ccc(C(=O)NCCc4ccc5[nH]cc(C(=N)N)c5c4)cc3)n2)CC1 (as salt: salt) [Example 1aaae, N-[2-(3-Carbamimidoyl-1H-indol-5-yl)ethyl]-4-[2-(4-methylpiperazin-1-yl)pyrimidin-4-yl]benzamide]",111 to 113
7,"N=C(N)c1c[nH]c2ccc(CCNC(=O)c3ccc(-c4ccnc(NCCCCN5CCCCC5)n4)cc3)cc12 [Example 1aaan, N-[2-(3-Carbamimidoyl-1H-indol-5-yl)ethyl]-4-[2-(4-piperidin-1-ylbutylamino)pyrimidin-4-yl]benzamide]",94 to 96
8,"N=C(N)c1c[nH]c2ccc(CCNC(=O)c3ccc(-c4ccnc(N5CCCC5CO)n4)cc3)cc12 (stereo not drawn) (as salt: salt) [Example 1aaaj, N-[2-(3-Carbamimidoyl-1H-indol-5-yl)-ethyl]-4-[2-(2-hydroxymethylpyrrolidin-1-yl)-pyrimidin-4-yl]benzamide]",117 to 120
9,"CC(Oc1nccc(-c2ccc(C(=O)NCCc3ccc4[nH]cc(C(=N)N)c4c3)cc2)n1)C(N)=O (stereo not drawn) [Example 1aaaam, N-[2-(3-Carbamimidoyl-1H-indol-5-yl)ethyl]-4-[2-(1-carbamoylethoxy)pyrimidin-4-yl]benzamide]",159 to 161
10,"CN(C)CCCOc1cccc(-c2ccc(C(=O)NCCc3ccc4[nH]cc(C(=N)N)c4c3)cc2)c1 [Example 1aaaaw, 3′-(3-Dimethylaminopropoxy)biphenyl-4-carboxylic acid [2-(3-carbamimidoyl-1H-indol-5-yl)ethyl]amide]",84 to 86
11,"N=C(N)c1c[nH]c2ccc(CCNC(=O)c3ccc(-c4ccnc(OCCN5CCCC5)n4)cc3)cc12 (as salt: salt) [Example 1aaaaq, N-[2-(3-Carbamimidoyl-1H-indol-5-yl)ethyl]-4-[2-(2-pyrrolidin-1-yl-ethoxy)pyrimidin-4-yl]benzamide]",104 to 105
12,"CN(C)CCOc1ccccc1-c1ccc(C(=O)NCCc2ccc3[nH]cc(C(=N)N)c3c2)cc1 [Example 1aaaau, 2′-(2-Dimethylaminoethoxy)biphenyl-4-carboxylic acid [2-(3-carbamimidoyl-1H-indol-5-yl)ethyl]amide]",73 to 76
13,"N=C(N)c1c[nH]c2ccc(CCNC(=O)c3ccc(-c4ccnc(OC5CCCNC5=O)n4)cc3)cc12 (stereo not drawn) [Example 1aaaap, N-[2-(3-Carbamimidoyl-1H-indol-5-yl)ethyl]-4-[2-(2-oxopiperidin-3-yloxy)pyrimidin-4-yl]benzamide]",145 to 147
14,"CN(C)CCOc1cccc(-c2ccc(C(=O)NCCc3ccc4[nH]cc(C(=N)N)c4c3)cc2)c1 [Example 1aaaas, 3′-(2-Dimethylaminoethoxy)biphenyl-4-carboxylic acid [2-(3-carbamimidoyl-1H-indol-5-yl)ethyl]amide]",99 to 101
15,"N=C(N)c1c[nH]c2ccc(CCNC(=O)c3ccc(-c4cccnc4)cc3)cc12 [Example 1a, N-(2-[3-Carbamimidoyl-5-indolyl]ethyl)-4-pyrid-3-ylbenzamide]",55 to 58
16,"CN(C)CCNC(=O)Cn1cc(-c2ccc(C(=O)NCCc3ccc4[nH]cc(C(=N)N)c4c3)cc2)ccc1=O [Example 1aaaaad, N-[2-(3-Carbamimidoyl-1H-indol-5-yl)-ethyl]-4-{1-[(2-dimethylaminoethylcarbamoyl)methyl]-6-oxo-1,6-dihydropyridin-3-yl}benzamide]",71 to 75

# Continued, values first:
row,melting point [°C],Structure (SMILES)
1,73 to 76,"CCN(CC)CCCCNc1nccc(-c2ccc(C(=O)NCCc3ccc4[nH]cc(C(=N)N)c4c3)cc2)n1 [Example 1aaap, N-[2-(3-Carbamimidoyl-1H-indol-5-yl)ethyl]-4-[2-(4-diethylaminobutylamino)pyrimidin-4-yl]benzamide]"
2,235 to 236,"N=C(N)c1c[nH]c2ccc(CCNC(=O)c3ccc(-n4cccn4)nc3)cc12 [Example 1ac, N-(2-[3-Carbamimidoylindol-5-yl]ethyl)-6-pyrazol-1-ylnicotinamide]"
3,222 to 224,"N=C(N)c1c[nH]c2ccc(CCNC(=O)c3ccc(-c4ncns4)cc3)cc12 [Example 1i, N-(2-[3-Carbamimidoylindol-5-yl]ethyl)-4-(1,2,4)thiadiazol-5-ylbenzamide]"
4,97 to 100,"CN(CCO)c1nccc(-c2ccc(C(=O)NCCc3ccc4[nH]cc(C(=N)N)c4c3)cc2)n1 (as salt: salt) [Example 1aaav, N-[2-(3-Carbamimidoyl-1H-indol-5-yl)ethyl]-4-{2-[(2-hydroxy-ethyl)-N-methylamino]pyrimidin-4-yl}benzamide]"
5,164 to 167,"COc1ccc(-c2ccc(C(=O)NCCc3ccc4[nH]cc(C(=N)N)c4c3)cc2)cn1 [Example 1p, N-(2-[3-Carbamimidoylindol-5-yl]ethyl)-4-(6-methoxypyrid-3-yl)benzamide]"
6,156 to 159,"CN(C)CCCCNc1nccc(-c2ccc(C(=O)NCCc3ccc4[nH]cc(C(=N)N)c4c3)cc2)n1 (as salt: salt) [Example 1aaas, N-[2-(3-Carbamimidoyl-1H-indol-5-yl)ethyl]-4-[2-(4-dimethylaminobutylamino)pyrimidin-4-yl]benzamide]"
7,191 to 194,"N=C(N)c1c[nH]c2ccc(CCNC(=O)c3ccc(-n4ccnc4)cc3)cc12 [Example 1g, N-(2-[3-Carbamimidoylindol-5-yl]ethyl)-4-imidazol-1-ylbenzamide]"
8,89 to 91,"CN(C)CCCCCCNc1nccc(-c2ccc(C(=O)NCCc3ccc4[nH]cc(C(=N)N)c4c3)cc2)n1 (as salt: salt) [Example 1aaar, N-[2-(3-Carbamimidoyl-1H-indol-5-yl)ethyl]-4-[2-(6-dimethylaminohexylamino)pyrimidin-4-yl]benzamide]"
